The record followed here is patent US12679848B2, “Plasma kallikrein inhibitors” (Merck Sharp & Dohme LLC, priority 2020, dated 2026).

SMILES strings stand for the structures. pIC50: −log10 of the molar value. Bounds are passed on as bounds.

In one assay the target is human factor XIa (Homo sapiens, UniProt P03951). Nature of the assay: Factor XIa Assay. It counts as biochemical. The following applies: human factor XIa 0.04 nM, substrate GPR-AFC, 30 min pre-incubation, 25° C., pH 7.4; read-out: FXIa IC50.
Another assay deals with T1, Human plasma kallikrein (Homo sapiens, UniProt P03952).
T1 construct: yields a heavy chain (371 amino acids) and a light chain (248 amino acids); The active site of plasma kallikrein is contained in the light chain; purchased Enzyme Research Laboratories
Briefly: Plasma Kallikrein Assay. The following applies: purified Human plasma kallikrein 0.5 nM, substrate Acetyl-K-P-R-AFC, HEPES pH 7.4; read-out: PKal IC50. It is filed as biochemical. A digest of the protocol: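 Purified human plasma kallikrein at 0.5 nM final with substrate Acetyl-K-P-R-AFC at […], in 50 mM HEPES pH 7.4, 150 mM NaCl, 5 mM CaCl2, 0.1% PEG 8000, at rt or 37° C after enzyme-inhibitor equilibration. IC50 from four-parameter logistic fit of fluorescence rate; Ki via Cheng-Prusoff.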

T1 sequence (P03952 391-638 limits assumed): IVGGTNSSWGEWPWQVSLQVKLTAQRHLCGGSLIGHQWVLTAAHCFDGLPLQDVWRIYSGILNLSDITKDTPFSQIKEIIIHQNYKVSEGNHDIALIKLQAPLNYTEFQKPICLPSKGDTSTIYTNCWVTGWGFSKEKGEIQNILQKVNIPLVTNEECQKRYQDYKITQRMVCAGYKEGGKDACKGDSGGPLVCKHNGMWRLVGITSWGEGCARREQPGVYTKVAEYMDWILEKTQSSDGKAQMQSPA
T1 sequence (P03952 20-390 partner limits assumed): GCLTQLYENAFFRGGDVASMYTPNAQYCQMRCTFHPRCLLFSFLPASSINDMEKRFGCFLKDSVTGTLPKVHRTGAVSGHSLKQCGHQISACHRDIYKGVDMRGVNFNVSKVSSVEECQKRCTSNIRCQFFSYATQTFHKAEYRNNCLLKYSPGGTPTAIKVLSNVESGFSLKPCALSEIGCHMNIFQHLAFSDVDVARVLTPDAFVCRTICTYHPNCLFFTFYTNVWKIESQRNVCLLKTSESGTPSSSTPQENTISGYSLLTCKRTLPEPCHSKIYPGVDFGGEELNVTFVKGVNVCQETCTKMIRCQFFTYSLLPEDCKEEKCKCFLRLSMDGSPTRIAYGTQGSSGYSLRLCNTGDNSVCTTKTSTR
Chain of human factor XIa (P03951 388-625 limits assumed): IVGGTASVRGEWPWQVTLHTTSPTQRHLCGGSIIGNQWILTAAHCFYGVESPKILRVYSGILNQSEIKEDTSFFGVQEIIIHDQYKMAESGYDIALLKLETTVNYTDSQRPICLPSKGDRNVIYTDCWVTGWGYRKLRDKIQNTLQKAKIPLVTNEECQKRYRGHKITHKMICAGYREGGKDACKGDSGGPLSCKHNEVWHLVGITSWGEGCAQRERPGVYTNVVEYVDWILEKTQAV
Chain of human factor XIa (P03951 19-387 partner limits assumed): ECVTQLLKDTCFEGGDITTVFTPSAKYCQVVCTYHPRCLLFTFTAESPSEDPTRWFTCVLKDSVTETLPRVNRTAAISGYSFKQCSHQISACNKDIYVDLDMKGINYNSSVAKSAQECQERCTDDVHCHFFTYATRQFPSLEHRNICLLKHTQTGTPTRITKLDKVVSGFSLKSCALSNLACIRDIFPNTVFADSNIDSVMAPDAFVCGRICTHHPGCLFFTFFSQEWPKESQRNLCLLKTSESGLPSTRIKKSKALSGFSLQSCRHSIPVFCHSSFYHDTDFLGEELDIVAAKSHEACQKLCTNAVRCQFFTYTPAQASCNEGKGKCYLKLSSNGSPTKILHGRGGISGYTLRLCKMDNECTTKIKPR

As to `COc1cccc(Cn2ncc(C(=O)N3CCC[C@@]4(C3)OC(=O)Nc3ccc(Cl)c(F)c34)c2N)c1` [Example 39, (R)-1'-(5-Amino-1-(3-methoxybenzyl)-1H-pyrazole-4-carbonyl)-6-chloro-5-fluorospiro[benzo[d][1,3]oxazine-4,3'-piperidin]-2(1H)-one], the pIC50 is 6.53 on human factor XIa and 8.92 on Human plasma kallikrein.
Consider `Cc1ccc(-n2ncc(C(=O)N3CCC[C@@]4(C3)OC(=O)Nc3ccc(Cl)c(F)c34)c2N)cc1` [Example 111, (R)-1'-(5-Amino-1-(p-toly1)-1H-pyrazole-4-carbonyl)-6-chloro-5-fluorospiro[benzo[d][1,3]oxazine-4,3'-piperidin]-2(1H)-one], for which the pIC50 at human factor XIa is 5.52; at Human plasma kallikrein, 7.10.
In the case of `Nc1c(C(=O)N2CCC[C@@]3(C2)OC(=O)Nc2ccc(Cl)c(F)c23)cnn1Cc1cccnc1` [Example 55, (R)-1'-(5-Amino-1-(pyridin-3-ylmethyl)-1H-pyrazole-4-carbonyl)-6-chloro-5-fluorospiro[benzo[d][1,3]oxazine-4,3'-piperidin]-2(1H)-one], the negative logarithm of the IC50 (pIC50) was 6.38 on human factor XIa and 8.70 on Human plasma kallikrein.
Consider `CCc1ccccc1-n1ncc(C(=O)N2CCC[C@@]3(C2)OC(=O)Nc2ccc(Cl)c(F)c23)c1N` [Example 80, (R)-1'-(5-Amino-1-(2-ethylphenyl)-1H-pyrazole-4-carbonyl)-6-chloro-5-fluorospiro[benzo[d][1,3]oxazine-4,3'-piperidin]-2(1H)-one], for which the pIC50 on human factor XIa is 6.49; on Human plasma kallikrein, 7.94.
Regarding `CC(C)OCCn1ncc(C(=O)N2CCC[C@@]3(C2)OC(=O)Nc2ccc(Cl)c(F)c23)c1N` [Example 21, (R)-1'-(5-Amino-1-(2-isopropoxyethyl)-1H-pyrazole-4-carbonyl)-6-chloro-5-fluorospiro[benzo[d][1,3]oxazine-4,3'-piperidin]-2(1H)-one], the pIC50 on human factor XIa was 5.96; on Human plasma kallikrein, 7.90.
`Nc1c(C(=O)N2CCC[C@@]3(C2)OC(=O)Nc2ccc(Cl)c(F)c23)cnn1CC1CC1` [Example 13, (R)-1'-(5-Amino-1-(cyclopropylmethyl)-1H-pyrazole-4-carbonyl)-6-chloro-5-fluorospiro[benzo[d][1,3]oxazine-4,3'-piperidin]-2(1H)-one]: the pIC50 was 6.24 on human factor XIa and 8.14 on Human plasma kallikrein.
The corresponding values for `Nc1c(C(=O)N2CCC[C@@]3(C2)OC(=O)Nc2ccc(Cl)c(F)c23)cnn1-c1ccccc1C(F)(F)F` [Example 77, (R)-1'-(5-Amino-1-(2-(trifluoromethyl)phenyl)-1H-pyrazole-4-carbonyl)-6-chloro-5-fluorospiro[benzo[d][1,3]oxazine-4,3'-piperidin]-2(1H)-one] are 6.40 and 7.76.
For the compound `Nc1c(C(=O)N2CCC[C@@]3(C2)OC(=O)Nc2ccc(Cl)c(F)c23)cnn1Cc1cccc(F)c1` [Example 9, (R)-1'-(5-Amino-1-(3-fluorobenzyl)-1H-pyrazole-4-carbonyl)-6-chloro-5-fluorospiro[benzo[d][1,3]oxazine-4,3'-piperidin]-2(1H)-one], the pIC50 is 6.60 on human factor XIa and 9.05 on Human plasma kallikrein.
Take `Nc1c(C(=O)N2CCC[C@@]3(C2)OC(=O)Nc2ccc(Cl)c(F)c23)cnn1-c1ccccc1F` [Example 84, (R)-1'-(5-Amino-1-(2-fluorophenyl)-1H-pyrazole-4-carbonyl)-6-chloro-5-fluorospiro[benzo[d][1,3]oxazine-4,3'-piperidin]-2(1H)-one]: the pIC50 was 6.03 on human factor XIa and 7.56 at Human plasma kallikrein.
`Nc1c(C(=O)N2CCC[C@@]3(C2)OC(=O)Nc2ccc(Cl)c(F)c23)cnn1C1CCOCC1` [Example 18, (R)-1'-(5-Amino-1-(tetrahydro-2H-pyran-4-y1)-1H-pyrazole-4-carbonyl)-6-chloro-5-fluorospiro[benzo[d][1,3]oxazine-4,3'-piperidin]-2(1H)-one]: the pIC50 is 5.78 at human factor XIa and 7.41 at Human plasma kallikrein.
In the case of `Cc1cccc(-n2ncc(C(=O)N3CCC[C@@]4(C3)OC(=O)Nc3ccc(Cl)c(F)c34)c2N)c1C` [Example 85, (R)-1'-(5-Amino-1-(2,3-dimethylphenyl)-1H-pyrazole-4-carbonyl)-6-chloro-5-fluorospiro[benzo[d][1,3]oxazine-4,3'-piperidin]-2(1H)-one], the negative logarithm of the IC50 (pIC50) on human factor XIa was 5.71; at Human plasma kallikrein, 8.04.
Turning to `Nc1c(C(=O)N2CCC[C@@]3(C2)OC(=O)Nc2ccc(Cl)c(F)c23)cnn1Cc1cccc(C(F)(F)F)c1` [Example 5, (R)-1'-(5-Amino-1-(3-(trifluoromethyl)benzy1)-1H-pyrazole-4-carbonyl)-6-chloro-5-fluorospiro[benzo[d][1,3]oxazine-4,3'-piperidin]-2(1H)-one], the negative-log IC50 (pIC50) at human factor XIa is 6.14; at Human plasma kallikrein it was 8.77.
As to `Nc1c(C(=O)N2CCC[C@@]3(C2)OC(=O)Nc2ccc(Cl)c(F)c23)cnn1-c1ccnc2ccccc12` [Example 103, (R)-1'-(5-Amino-1-(quinolin-4-yl)-1H-pyrazole-4-carbonyl)-6-chloro-5-fluorospiro[benzo[d][1,3]oxazine-4,3'-piperidin]-2(1H)-one], the pIC50 was 6.21 on human factor XIa and 8.00 at Human plasma kallikrein.
For `Nc1c(C(=O)N2CCC[C@@]3(C2)OC(=O)Nc2ccc(Cl)c(F)c23)cnn1Cc1ccc(C(F)(F)F)nc1` [Example 43, (R)-1'-(5-Amino-1-((6-(trifluoromethyl)pyridin-3-yl)methyl)-1H-pyrazole-4-carbonyl)-6-chloro-5-fluorospiro[benzo[d][1,3]oxazine-4,3'-piperidin]-2(1H)-one], the pIC50 is 6.04 at human factor XIa and 8.10 on Human plasma kallikrein.
In the case of `COc1ccc(-n2ncc(C(=O)N3CCC[C@@]4(C3)OC(=O)Nc3ccc(Cl)c(F)c34)c2N)cc1` [Example 58, (R)-1'-(5-Amino-1-(4-methoxyphenyl)-1H-pyrazole-4-carbonyl)-6-chloro-5-fluorospiro[benzo[d][1,3]oxazine-4,3'-piperidin]-2(1H)-one], the figures for the negative-log IC50 (pIC50) on human factor XIa and on Human plasma kallikrein were 5.50 and 7.40, respectively.
For `Nc1c(C(=O)N2CCC[C@@]3(C2)OC(=O)Nc2ccc(Cl)c(F)c23)cnn1CC(F)F` [Example 15, (R)-1'-(5-Amino-1-(2,2-difluoroethyl)-1H-pyrazole-4-carbonyl)-6-chloro-5-fluorospiro[benzo[d][1,3]oxazine-4,3'-piperidin]-2(1H)-one], in that order: 6.05 and 7.77.
As for `CCC(n1ncc(C(=O)N2CC(C)(C)C[C@@]3(C2)OC(=O)Nc2ccc(Cl)c(F)c23)c1N)C(F)(F)F` (single isomer, unassigned) [Example 131, (R)-1'-(5-Amino-1-((S or R)-1,1,1-trifluorobutan-2-y1)-1H-pyrazole-4-carbonyl)-6-chloro-5-fluoro-5',5'-dimethylspiro[benzo[d][1,3]oxazine-4,3'-piperidin]-2(1H)-one], the pIC50 is 7.15 on human factor XIa and 8.92 on Human plasma kallikrein.
Turning to `Nc1c(C(=O)N2CCC[C@@]3(C2)OC(=O)Nc2ccc(Cl)c(F)c23)cnn1-c1ccccc1OC1CCC1` [Example 97, (R)-1'-(5-Amino-1-(2-cyclobutoxyphenyl)-1H-pyrazole-4-carbonyl)-6-chloro-5-fluorospiro[benzo[d][1,3]oxazine-4,3'-piperidin]-2(1H)-one], the values for the negative-log IC50 (pIC50) on human factor XIa and at Human plasma kallikrein were 5.89 and 8.10, respectively.
Take `CC(n1ncc(C(=O)N2CCC[C@@]3(C2)OC(=O)Nc2ccc(Cl)c(F)c23)c1N)C(F)(F)F` (single isomer, unassigned) [Example 121, (R)-1'-(5-Amino-1-((S or R)-1,1,1-trifluoropropan-2-y1)-1H-pyrazole-4-carbonyl)-6-chloro-5-fluorospiro[benzo[d][1,3]oxazine-4,3'-piperidin]-2(1H)-one]: the pIC50 was 6.23 at human factor XIa and 8.31 on Human plasma kallikrein.
For the compound `Nc1c(C(=O)N2CCC[C@@]3(C2)OC(=O)Nc2ccc(Cl)c(F)c23)cnn1-c1cccc(Cl)c1` [Example 110, (R)-1'-(5-Amino-1-(3-chlorophenyl)-1H-pyrazole-4-carbonyl)-6-chloro-5-fluorospiro[benzo[d][1,3]oxazine-4,3'-piperidin]-2(1H)-one], the negative-log IC50 (pIC50) at human factor XIa is below 5.00; on Human plasma kallikrein, 7.18.
`Nc1c(C(=O)N2CCC[C@@]3(C2)OC(=O)Nc2ccc(Cl)c(F)c23)cnn1-c1ccnc2c(F)cccc12` [Example 104, (R)-1'-(5-Amino-1-(8-fluoroquinolin-4-y1)-1H-pyrazole-4-carbonyl)-6-chloro-5-fluorospiro[benzo[d][1,3]oxazine-4,3'-piperidin]-2(1H)-one]: the results for the negative-log IC50 (pIC50) at human factor XIa and on Human plasma kallikrein were 6.25 and 8.02, respectively.
For `Nc1c(C(=O)N2CCC[C@@]3(C2)OC(=O)Nc2ccc(Cl)c(F)c23)cnn1-c1ccccc1OCC(F)(F)F` [Example 99, (R)-1'-(5-Amino-1-(2-(2,2,2-trifluoroethoxy)phenyl)-1H-pyrazole-4-carbonyl)-6-chloro-5-fluorospiro[benzo[d][1,3]oxazine-4,3'-piperidin]-2(1H)-one], in that order: 5.97 and 7.88.
For `Nc1c(C(=O)N2CCC[C@@]3(C2)OC(=O)Nc2ccc(Cl)c(F)c23)cnn1-c1ccc2cn[nH]c2c1` [Example 59, (R)-1'-(5-Amino-1-(1H-indazol-6-yl)-1H-pyrazole-4-carbonyl)-6-chloro-5-fluorospiro[benzo[d][1,3]oxazine-4,3'-piperidin]-2(1H)-one], the negative-log IC50 (pIC50) was 5.94 at human factor XIa and 7.59 at Human plasma kallikrein.

A word on the pIC50: it is the IC50 on a negative log10 scale, so that one unit is a factor of ten.
